Assay results published in ChEMBL document CHEMBL4270505, “Towards antibody-drug conjugates and prodrug strategies with extracellular stimuli-responsive drug delivery in the tumor microenvironment for cancer therapy” (Eur J Med Chem, 2017).
pIC50: −log10 of the molar value.

Assays:
[1] = Antitumor activity against human CL1-5 cells xenografted in mouse assessed as disease cure rate; type: functional
HT-29 [2] = assay: Cytotoxicity in human HT-29 cells assessed as reduction in cell viability; type: functional, cell-based
HT-29 [3] = assay: Potency index, ratio of IC50 for paclitaxel to IC50 for test compound for cytotoxicity in human HT-29 cells; type: functional

SMILES	Activity [1]	pIC50 (HT-29 [2])	Ratio IC50 (HT-29 [3])
Nc1cccc2nc3c(cc12)Cn1c-3cc2c(c1=O)COC(=O)[C@]2(O)CC(=O)OCc1ccc(O[C@@H]2O[C@H](C(=O)O)[C@@H](O)[C@H](O)[C@H]2O)c([N+](=O)[O-])c1	70 - 85%		
CC(=O)O[C@H]1C(=O)[C@@]2(C)[C@H]([C@H](OC(=O)c3ccccc3)[C@]3(O)C[C@H](OC(=O)[C@H](OC(=O)OCCN(C)C(=O)OCc4ccc(O[C@@H]5O[C@H](C(=O)O)[C@@H](O)[C@H](O)[C@H]5O)cc4)[C@@H](NC(=O)c4ccccc4)c4ccccc4)C(C)=C1C3(C)C)[C@]1(OC(C)=O)CO[C@@H]1C[C@@H]2O		7.59	164
